Measured values: the supplement of paper PMC4862054
Values joined by “and” are separate entries in the source; they are usually repeats but may differ in a detail not shown here. Equal entries are not always repeated.

Tests used:
Settings in all cases: incubation time: 72 h
BT-474 = test: normalised response (% of control), CellTiter-Glo; higher = more viable cells (100 = DMSO, 0 = benzethonium chloride kill control)
Procedure, shortened: (§1)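 Each entry is the normalised signal at a single concentration within a series. The series comprised 5 concentrations in 10-fold steps over a compound-specific 10,000-fold range, placed in 384-well plates into which breast cancer cell lines were seeded as 20 µl suspension and incubated 72 h. CellTox Green (485/520 nm) fluorescence and then CellTiter-Glo luminescence were read, with signals normalised per plate to 0.1 % DMSO (100) and a positive kill control (0).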

BT-549 = test: as above
Procedure, shortened: as §1

CAL-120 [1] = test: as above
Procedure, shortened: as §1

CAL-148 [2] = test: as above
Procedure, shortened: as §1

CAL-51 [3] = test: as above
Procedure, shortened: as §1

CAL-85-1 [4] = test: as above
Procedure, shortened: as §1

DU-4475 [5] = test: as above
Procedure, shortened: as §1

HCC1143 [6] = test: as above
Procedure, shortened: as §1

HCC1599 [7] = test: as above
Procedure, shortened: as §1

HCC1937 [8] = test: as above
Procedure, shortened: as §1

HDQ-P1 [9] = test: as above
Procedure, shortened: as §1

Hs578T [10] = test: as above
Procedure, shortened: as §1

MCF-10A = test: as above
Procedure, shortened: as §1

MDA-MB-231 [11] = test: as above
Procedure, shortened: as §1

MDA-MB-436 = test: as above
Procedure, shortened: as §1

MDA-MB-453 [12] = test: as above
Procedure, shortened: as §1

MDA-MB-468 [13] = test: as above
Procedure, shortened: as §1

MFM-223 [14] = test: as above
Procedure, shortened: as §1

SK-BR-3 [15] = test: as above
Procedure, shortened: as §1

CAL-120 [16] = test: normalised viability (% of control), CellTiter-Blue; higher = more viable cells (100 = DMSO, 0 = benzethonium chloride kill control)
Description: (§2)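 DSRT, CellTiter-Blue viability, 72 h incubation. Signal is normalised to DMSO and benzethonium chloride controls. Value is the normalised response at dose 1.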

CAL-148 [17] = test: as above
Description: as §2

CAL-51 [18] = test: as above
Description: as §2

CAL-85-1 [19] = test: as above
Description: as §2

DU-4475 [20] = test: as above
Description: as §2

HCC1143 [21] = test: as above
Description: as §2

HCC1599 [22] = test: as above
Description: as §2

HCC1937 [23] = test: as above
Description: as §2

HDQ-P1 [24] = test: as above
Description: as §2

Hs578T [25] = test: as above
Description: as §2

MDA-MB-231 [26] = test: as above
Description: as §2

MDA-MB-453 [27] = test: as above
Description: as §2

MDA-MB-468 [28] = test: as above
Description: as §2

MFM-223 [29] = test: as above
Description: as §2

SK-BR-3 [30] = test: as above
Description: as §2

## CCCCCOC(=O)Nc1nc(=O)n([C@@H]2O[C@H](C)[C@@H](O)[C@H]2O)cc1F [Capecitabine] (1 nM)
BT-474
  normalised response: 95.2%
BT-549
  normalised response: 107%
CAL-120 [1]
  normalised response: 94.6%
CAL-148 [2]
  normalised response: 106%
CAL-51 [3]
  normalised response: 67.8%
CAL-85-1 [4]
  normalised response: 96.8%
DU-4475 [5]
  normalised response: 99.7%
HCC1143 [6]
  normalised response: 96.8%
HCC1599 [7]
  normalised response: 95.5%
HCC1937 [8]
  normalised response: 98.2%
HDQ-P1 [9]
  normalised response: 102%
Hs578T [10]
  normalised response: 102%
MCF-10A
  normalised response: 94.5%
MDA-MB-231 [11]
  normalised response: 102%
MDA-MB-436
  normalised response: 88.7%
MDA-MB-453 [12]
  normalised response: 113%
MDA-MB-468 [13]
  normalised response: 103%
MFM-223 [14]
  normalised response: 98.2%
SK-BR-3 [15]
  normalised response: 110%
CAL-120 [16]
  normalised viability: 85.3% and 96.5%
CAL-148 [17]
  normalised viability: 106% and 102%
CAL-51 [18]
  normalised viability: 106% and 99.2%
CAL-85-1 [19]
  normalised viability: 86.7% and 109%
DU-4475 [20]
  normalised viability: 108% and 102%
HCC1143 [21]
  normalised viability: 93.5% and 107%
HCC1599 [22]
  normalised viability: 88.8% and 111%
HCC1937 [23]
  normalised viability: 84.3% and 85%
HDQ-P1 [24]
  normalised viability: 85.1% and 91.7%
Hs578T [25]
  normalised viability: 105% and 96.7%
MDA-MB-231 [26]
  normalised viability: 94.7% and 83.7%
MDA-MB-453 [27]
  normalised viability: 102% and 97.9%
MDA-MB-468 [28]
  normalised viability: 106% and 115%
MFM-223 [29]
  normalised viability: 88.8% and 95.7%
SK-BR-3 [30]
  normalised viability: 117% and 92.1%
